Experimental data: patent US6989155B1, “Powders” (Vectura Limited, priority 1998, dated 2006)

What was measured:
Format in all cases: physicochemical
[1] = Particle size distribution by low angle laser light scattering (Mastersizer X); settings: for D(v,90): diameter below which 90% of particles by volume reside, unit not given; for VMD: volume median diameter, dispersant 0.05% lecithin in cyclohexane
Experimental: The particle size distribution was determined by low angle laser light scattering (Mastersizer X, Malvern Instruments, Malvern, UK). To approximately 5 mg of the sample to be analysed 10 ml of dispersant was added (0.05% lecithin in cyclohexane). The sample suspension was sonicated for 30 seconds before analysis. The volume median diameter (VMD) and D(v,90) were determined. VMD is the diameter such that 50% of the particles by volume have a diameter less than the VMD. D(v,90) is the equivalent volume diameter at 90% cumulative volume. The bulk density and particle size diameter (as VMD) were determined for the spray-dried leucine. Bulk density and VMD were determined by the method indicated above.

[2] = Bulk density (poured density) of powder in a 100 cm^3 measuring cylinder; settings: L-leucine samples
Experimental: The bulk density (or poured density) of a material of the present invention is determined by the following method:
2 g of the material is poured from weighing paper into a 100 cm^3 graduated glass measuring cylinder in an upright position. Transfer of the material from the paper into the cylinder is made as rapidly as flow permits. The volume occupied by the poured powder in the cylinder is measured to the nearest 0.5 ml (bulk volume) and the weight of the powder is determined.
The bulk density of the material is calculated as the weight of the powder divided by the bulk volume.
The bulk density and particle size diameter (as VMD) were determined for the spray-dried leucine. Bulk density and VMD were determined by the method indicated above.
The bulk density and particle size distribution were determined by the methods described in respect of Example 1 above, and are given in Table 3.

[3] = Flow properties: poured density, tapped density and Carr's Index; settings: for Poured Density: 250 cm^3 measuring cylinder; for Tapped Density: tapped to constant volume
Experimental: The flow properties of the L-leucine were determined by measuring the Carr's Index of the powder. Spray-dried L-leucine was added to a powdered protein (BSA-maltodextrin 50:50).
Carr's Index of a sample was determined by measuring the volume (Vpour) of weight (W) poured into a 250 cm^3 measuring cylinder and tapping the cylinder to obtain constant volume of the sample (Vtap). The poured density (bulk density) and the tap density are calculated as W/Vpour and W/Vtap respectively and Carr's Index is calculated from the tapped density and the poured density by the formula [formula]

[4] = Thickness of flakes (electron microscope observation); settings: flakes prepared by the spray drying method
Source text: Observation of the thickness of the flakes may be made by studying electron microscope (SEM) images of the particles. For example, flakes may be mounted on an electron microscope stub with double sided tape and coated with gold prior to examination on an electron microscope. An alternative method for observing the dimensions of particles of the present invention is by sizing the particles on a microscope slide in a similar way to that described in British Pharmacopoeia 1973 (page 645, Ergotamine Aerosol Inhalation). In this case a small quantity of particles, for example 10 to 100 mg, are dropped onto a microscope slide and examined under a microscope to assess the particle size of the deposit.

[5] = listed as unprocessed L-leucine

VMD [1]	Bulk Density ([2]; Example 1, Table 1) [g cm^−3]	Bulk Density ([2]; Example 2, Table 3) [gcm^−3]	other results	SMILES
3.9 μm	0.032	–	D(v,90) [1]: 11.9	CC(C)C[C@H](N)C(=O)O [spray-dried E, L-leucine]
–	0.029	–	–	CC(C)C[C@H](N)C(=O)O [spray-dried C, L-leucine]
–	0.710	0.70	Poured Density [3, 5]: 0.710 gcm^−3; Tapped Density [3, 5]: 0.770 gcm^−3	CC(C)C[C@H](N)C(=O)O [unprocessed, L-leucine, reference compound]
–	0.035	–	–	CC(C)C[C@H](N)C(=O)O [spray-dried B, L-leucine]
milled (VMD = 18 μm)	–	0.30	–	CC(C)C[C@H](N)C(=O)O [milled, L-leucine, reference compound]
4.2 μm	0.042	–	D(v,90) [1]: 10.6	CC(C)C[C@H](N)C(=O)O [spray-dried A, L-leucine]
–	–	–	thickness of flakes [4]: less than 100 nm; Poured Density [3]: 0.043 gcm^−3; Tapped Density [3]: 0.055 gcm^−3	CC(C)C[C@H](N)C(=O)O [spray-dried L-leucine, L-leucine]
–	0.035	–	–	CC(C)C[C@H](N)C(=O)O [spray-dried D, L-leucine]
–	–	0.04	–	CC(C)C[C@H](N)C(=O)O [condensed, L-leucine]
